Laboratory results taken from patent publication US9113629B2, “4-amino-6-(4-substituted-phenyl)-picolinates and 6-amino-2-(4-substituted-phenyl)-pyrimidine-4-carboxylates and their use as herbicides” (DOW AGROSCIENCES LLC, priority 2013, dated 2015).
Where two headings read alike, the source gives them in different places.

Columns and labels:
[1] = tested on: Key Grass and Sedge Weeds as well as Grass Crops; experiment: Post-emergent Test II herbicidal activity (Table 6); type: in vivo; settings: post-emergence, 336 h; for pest or weed control at 70 g/ha: application rate 70 g ai/ha; for pest or weed control at 140 g/ha: application rate 140 g ai/ha
How it was run: (§1)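 Spray rates: a highest rate plus ½×, ¼×, ⅛×, 1/16×, all delivered at 187 L/ha to plants at the first–second true leaf stage. Readout is a visual percent injury score at 14 d, where 100 means complete kill.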

[2] = tested on: Key Broadleaf Weed and Crop Species; experiment: Post-emergent Test II herbicidal activity (Table 5); type: in vivo; settings: post-emergence, 336 h, post-emergent, 14 days after application; for pest or weed control at 70 g/ha: 70 g ai/ha; for pest or weed control at 140 g/ha: 140 g ai/ha
How it was run: as §1

[3] = Triticum aestivum, TRZSS (wheat), read-out: Visual Growth Reduction (%) 14 Days After Application, TRZSS
[4] = CYPES: yellow nutsedge (Cyperus esculentus), read-out: Visual Growth Reduction (%) 14 Days After Application, CYPES
[5] = DIGSA: crabgrass (Digitaria sanguinalis), read-out: Visual Growth Reduction (%) 14 Days After Application, DIGSA
[6] = ECHCG: barnyardgrass (Echinochloa crus-galli), read-out: Visual Growth Reduction (%) 14 Days After Application, ECHCG
[7] = ORYSA: rice (Oryza sativa), read-out: Visual Growth Reduction (%) 14 Days After Application, ORYSA
[8] = SETFA: giant foxtail (Setaria faberi), read-out: Visual Growth Reduction (%) 14 Days After Application, SETFA
[9] = SORVU: grain sorghum (Sorghum vulgare), read-out: Visual Growth Reduction (%) 14 Days After Application, SORVU
[10] = ZEAMX: maize, corn (Zea mays), read-out: Visual Growth Reduction (%) 14 Days After Application, ZEAMX
[11] = ABUTH: velvetleaf (Abutilon theophrasti), read-out: Visual Growth Reduction (%) 14 Days After Application ABUTH
[12] = AMARE: redroot pigweed (Amaranthus retroflexus), read-out: Visual Growth Reduction (%) 14 Days After Application AMARE
[13] = BRSNN: oilseed-rape, canola (Brassica napus), read-out: Visual Growth Reduction (%) 14 Days After Application BRSNN
[14] = CHEAL: lambsquarters (Chenopodium album), read-out: Visual Growth Reduction (%) 14 Days After Application CHEAL
[15] = EPHHL: wild poinsettia (Euphorbia heterophylla), read-out: Visual Growth Reduction (%) 14 Days After Application EPHHL
[16] = HELAN: sunflower (Helianthus annuus), read-out: Visual Growth Reduction (%) 14 Days After Application HELAN
[17] = VIOTR: wild pansy (Viola tricolor), read-out: Visual Growth Reduction (%) 14 Days After Application VIOTR

Compound | pest or weed control at 70 g/ha [1, 3] [%] | pest or weed control at 140 g/ha [1, 3] [%] | pest or weed control at 70 g/ha [1, 4] [%] | pest or weed control at 140 g/ha [1, 4] [%] | pest or weed control at 70 g/ha [1, 5] [%] | pest or weed control at 140 g/ha [1, 5] [%] | pest or weed control at 70 g/ha [1, 6] [%] | pest or weed control at 140 g/ha [1, 6] [%] | pest or weed control at 70 g/ha [1, 7] [%] | pest or weed control at 140 g/ha [1, 7] [%] | pest or weed control at 70 g/ha [1, 8] [%] | pest or weed control at 140 g/ha [1, 8] [%] | pest or weed control at 70 g/ha [1, 9] [%] | pest or weed control at 140 g/ha [1, 9] [%] | pest or weed control at 70 g/ha [1, 10] [%] | pest or weed control at 140 g/ha [1, 10] [%] | pest or weed control at 70 g/ha [2, 11] [%] | pest or weed control at 140 g/ha [2, 11] [%] | pest or weed control at 70 g/ha [2, 12] [%] | pest or weed control at 140 g/ha [2, 12] [%] | also measured
COC(=O)c1nc(-c2ccc(C(N)=O)cc2)c(F)c(N)c1Cl [Compound 192] | 0 to 29 | 0 to 29 | 0 to 29 | 0 to 29 | 0 to 29 | 0 to 29 | 0 to 29 | 0 to 29 | 0 to 29 | 0 to 29 | 0 to 29 | 0 to 29 | 0 to 29 | 0 to 29 | 0 to 29 | 0 to 29 | 0 to 29 | 0 to 29 | 0 to 29 | 0 to 29 | pest or weed control at 70 g/ha [2, 13]: 0 to 29%; pest or weed control at 140 g/ha [2, 13]: 0 to 29%; pest or weed control at 70 g/ha [2, 14]: 0 to 29%; pest or weed control at 140 g/ha [2, 14]: 0 to 29%; pest or weed control at 70 g/ha [2, 15]: 0 to 29%; pest or weed control at 140 g/ha [2, 15]: 0 to 29%; pest or weed control at 70 g/ha [2, 16]: 0 to 29%; pest or weed control at 140 g/ha [2, 16]: 0 to 29%; pest or weed control at 70 g/ha [2, 17]: 0 to 29%; pest or weed control at 140 g/ha [2, 17]: 0 to 29%; melting point: 192 to 195 °C
COC(=O)c1nc(-c2ccc(I)c(F)c2)cc(N)c1Cl [Compound 66, methyl 4-amino-3-chloro-6-(3-fluoro-4-iodophenyl)picolinate] | 0 to 29 | 0 to 29 | 45 to 59 | 95 to 100 | 60 to 74 | 60 to 74 | 0 to 29 | 60 to 74 | 0 to 29 | 0 to 29 | 0 to 29 | 0 to 29 | 75 to 84 | 85 to 94 | 0 to 29 | 0 to 29 | 85 to 94 | 85 to 94 | 95 to 100 | 95 to 100 | pest or weed control at 70 g/ha [2, 13]: 45 to 59%; pest or weed control at 140 g/ha [2, 13]: 45 to 59%; pest or weed control at 70 g/ha [2, 14]: 85 to 94%; pest or weed control at 140 g/ha [2, 14]: 85 to 94%; pest or weed control at 70 g/ha [2, 15]: 95 to 100%; pest or weed control at 140 g/ha [2, 15]: 95 to 100%; pest or weed control at 70 g/ha [2, 16]: 85 to 94%; pest or weed control at 140 g/ha [2, 16]: 85 to 94%; pest or weed control at 70 g/ha [2, 17]: 0 to 29%; pest or weed control at 140 g/ha [2, 17]: 0 to 29%; melting point: 141 to 143 °C
COC(=O)c1nc(-c2cc(F)c(Br)cc2F)cc(N)c1Cl [Compound 127, methyl 4-amino-6-(4-bromo-2,5-difluorophenyl)-3-chloropicolinate] | 60 to 74 | 75 to 84 | 95 to 100 | 95 to 100 | 85 to 94 | 95 to 100 | 95 to 100 | 95 to 100 | 0 to 29 | 0 to 29 | 95 to 100 | 95 to 100 | 95 to 100 | 95 to 100 | 85 to 94 | 85 to 94 | 95 to 100 | 95 to 100 | 95 to 100 | 95 to 100 | pest or weed control at 70 g/ha [2, 13]: 85 to 94%; pest or weed control at 140 g/ha [2, 13]: 95 to 100%; pest or weed control at 70 g/ha [2, 14]: 95 to 100%; pest or weed control at 140 g/ha [2, 14]: 95 to 100%; pest or weed control at 70 g/ha [2, 15]: 95 to 100%; pest or weed control at 140 g/ha [2, 15]: 95 to 100%; pest or weed control at 70 g/ha [2, 16]: 85 to 94%; pest or weed control at 140 g/ha [2, 16]: 95 to 100%; pest or weed control at 70 g/ha [2, 17]: 95 to 100%; pest or weed control at 140 g/ha [2, 17]: 95 to 100%; melting point: 174 to 176 °C
